Laboratory results reported in paper PMC4997860, “The Heterodimeric ABC Transporter EfrCD Mediates Multidrug Efflux in Enterococcus faecalis” (Antimicrobial Agents and Chemotherapy, 2016).

Key:
Assay in all cases: ATPase modulation in proteoliposomes, malachite green
Type in all cases: biochemical
[1] = target: T1, EfrEF (Enterococcus faecalis, UniProt Q832J9+Q832K0); conditions: 2.5 uM Hoechst 33342; 1 mM ATP, 10 mM MgSO4, pH 7.0, 30°C; bell-shaped curve
T1 construct: gene EF_2226; full-length heterodimer, N-terminal deca-His tag on first chain cleaved with 3C protease, expressed in L. lactis NZ9000 dlmrA dlmrCD; proteoliposomes
T1 sequence (Q832K0 entry or part of it): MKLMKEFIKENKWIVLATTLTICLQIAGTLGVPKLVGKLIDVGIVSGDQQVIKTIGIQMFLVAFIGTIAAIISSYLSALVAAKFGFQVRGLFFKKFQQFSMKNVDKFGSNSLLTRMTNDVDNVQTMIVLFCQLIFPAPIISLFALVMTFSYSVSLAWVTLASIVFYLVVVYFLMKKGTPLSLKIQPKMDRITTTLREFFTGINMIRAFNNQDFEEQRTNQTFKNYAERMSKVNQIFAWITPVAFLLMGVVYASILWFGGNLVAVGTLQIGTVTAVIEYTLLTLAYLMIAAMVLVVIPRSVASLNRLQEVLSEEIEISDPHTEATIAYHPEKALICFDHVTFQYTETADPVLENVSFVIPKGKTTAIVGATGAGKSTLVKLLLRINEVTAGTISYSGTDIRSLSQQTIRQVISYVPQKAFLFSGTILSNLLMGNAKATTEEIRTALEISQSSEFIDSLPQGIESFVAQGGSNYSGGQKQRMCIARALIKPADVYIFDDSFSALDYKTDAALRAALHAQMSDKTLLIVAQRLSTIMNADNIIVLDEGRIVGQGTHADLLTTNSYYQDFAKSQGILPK
T1 sequence (Q832J9 entry or part of it): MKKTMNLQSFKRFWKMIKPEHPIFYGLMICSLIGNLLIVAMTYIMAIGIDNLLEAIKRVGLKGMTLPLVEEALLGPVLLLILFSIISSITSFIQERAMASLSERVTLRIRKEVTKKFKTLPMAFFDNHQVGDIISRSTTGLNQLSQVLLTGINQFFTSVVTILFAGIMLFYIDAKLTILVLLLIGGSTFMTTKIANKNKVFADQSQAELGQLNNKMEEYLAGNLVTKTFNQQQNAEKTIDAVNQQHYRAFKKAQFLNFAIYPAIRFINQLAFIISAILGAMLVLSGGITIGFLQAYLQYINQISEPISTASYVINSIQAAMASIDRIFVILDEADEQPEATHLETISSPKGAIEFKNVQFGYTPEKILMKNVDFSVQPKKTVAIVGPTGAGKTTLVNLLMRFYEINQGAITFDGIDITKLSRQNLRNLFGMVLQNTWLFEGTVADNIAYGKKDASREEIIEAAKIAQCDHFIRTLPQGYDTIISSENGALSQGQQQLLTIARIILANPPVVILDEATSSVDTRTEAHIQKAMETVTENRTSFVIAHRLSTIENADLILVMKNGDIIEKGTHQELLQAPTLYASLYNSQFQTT

[2] = target: T2, EfrAB (Enterococcus faecalis, UniProt Q82ZX7+Q82ZX8); conditions: 20 uM Hoechst 33342; 1 mM ATP, 10 mM MgSO4, pH 7.0, 30°C; bell-shaped curve
T2 construct: gene EF_2920; full-length heterodimer, N-terminal deca-His tag on first chain cleaved with 3C protease, expressed in L. lactis NZ9000 dlmrA dlmrCD; proteoliposomes
T2 sequence (Q82ZX8 entry or part of it): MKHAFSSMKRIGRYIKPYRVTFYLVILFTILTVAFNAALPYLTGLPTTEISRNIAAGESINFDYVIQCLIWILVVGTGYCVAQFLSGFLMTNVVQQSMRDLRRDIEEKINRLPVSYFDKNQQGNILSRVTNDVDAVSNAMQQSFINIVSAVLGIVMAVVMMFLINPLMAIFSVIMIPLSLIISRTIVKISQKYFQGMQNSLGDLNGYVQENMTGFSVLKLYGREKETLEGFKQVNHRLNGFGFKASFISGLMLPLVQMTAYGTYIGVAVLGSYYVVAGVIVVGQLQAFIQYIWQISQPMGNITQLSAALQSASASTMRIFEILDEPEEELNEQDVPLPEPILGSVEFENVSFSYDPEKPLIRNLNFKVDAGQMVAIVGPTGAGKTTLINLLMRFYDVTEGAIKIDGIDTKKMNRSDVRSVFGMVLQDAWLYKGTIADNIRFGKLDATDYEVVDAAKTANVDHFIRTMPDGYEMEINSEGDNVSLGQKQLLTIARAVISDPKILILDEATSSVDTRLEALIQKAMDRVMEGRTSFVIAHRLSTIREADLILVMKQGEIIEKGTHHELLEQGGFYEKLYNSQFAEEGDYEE
T2 sequence (Q82ZX7 entry or part of it): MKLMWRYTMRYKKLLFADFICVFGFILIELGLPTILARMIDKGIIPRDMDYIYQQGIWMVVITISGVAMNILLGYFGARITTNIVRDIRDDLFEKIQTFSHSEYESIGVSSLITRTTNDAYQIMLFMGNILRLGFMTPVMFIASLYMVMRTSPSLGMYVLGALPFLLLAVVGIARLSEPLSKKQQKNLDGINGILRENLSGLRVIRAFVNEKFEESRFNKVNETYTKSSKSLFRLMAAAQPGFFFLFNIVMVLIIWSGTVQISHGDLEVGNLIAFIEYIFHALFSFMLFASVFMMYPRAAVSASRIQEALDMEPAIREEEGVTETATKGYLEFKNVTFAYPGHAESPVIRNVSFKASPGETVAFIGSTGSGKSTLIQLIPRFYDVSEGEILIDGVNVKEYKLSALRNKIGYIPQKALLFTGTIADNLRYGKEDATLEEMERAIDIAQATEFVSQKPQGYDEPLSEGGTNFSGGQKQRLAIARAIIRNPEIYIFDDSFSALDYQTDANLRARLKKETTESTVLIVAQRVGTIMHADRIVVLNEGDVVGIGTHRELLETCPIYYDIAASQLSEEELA

[3] = target: T1, EfrEF; conditions: 0.1-200 uM drug; 1 mM ATP, 10 mM MgSO4, pH 7.0, 30°C; bell-shaped curve
[4] = target: T3, EfrCD (Enterococcus faecalis, UniProt Q837P4+Q837P5); conditions: 0.1-200 uM drug; 1 mM ATP, 10 mM MgSO4, pH 7.0, 30°C; bell-shaped curve
T3 construct: gene EF_0789; full-length heterodimer, N-terminal deca-His tag on EfrC cleaved with 3C protease (tag present in cells), expressed in L. lactis NZ9000 dlmrA dlmrCD; proteoliposomes
T3 sequence (Q837P5 entry or part of it): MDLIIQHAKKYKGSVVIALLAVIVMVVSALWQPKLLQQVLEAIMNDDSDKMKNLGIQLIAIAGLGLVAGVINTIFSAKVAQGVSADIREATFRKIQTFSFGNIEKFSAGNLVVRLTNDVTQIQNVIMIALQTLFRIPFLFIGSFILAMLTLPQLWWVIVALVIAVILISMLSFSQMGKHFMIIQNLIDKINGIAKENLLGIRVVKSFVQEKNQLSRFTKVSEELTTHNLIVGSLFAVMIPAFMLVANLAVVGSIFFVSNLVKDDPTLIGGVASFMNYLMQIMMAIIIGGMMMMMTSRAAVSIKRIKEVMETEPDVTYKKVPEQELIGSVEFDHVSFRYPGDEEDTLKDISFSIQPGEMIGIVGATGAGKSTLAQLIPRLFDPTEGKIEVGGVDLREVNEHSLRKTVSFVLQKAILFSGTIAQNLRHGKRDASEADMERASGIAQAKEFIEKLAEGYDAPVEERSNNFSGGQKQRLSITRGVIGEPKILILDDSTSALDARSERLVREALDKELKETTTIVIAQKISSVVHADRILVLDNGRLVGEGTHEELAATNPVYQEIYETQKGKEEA
T3 sequence (Q837P4 entry or part of it): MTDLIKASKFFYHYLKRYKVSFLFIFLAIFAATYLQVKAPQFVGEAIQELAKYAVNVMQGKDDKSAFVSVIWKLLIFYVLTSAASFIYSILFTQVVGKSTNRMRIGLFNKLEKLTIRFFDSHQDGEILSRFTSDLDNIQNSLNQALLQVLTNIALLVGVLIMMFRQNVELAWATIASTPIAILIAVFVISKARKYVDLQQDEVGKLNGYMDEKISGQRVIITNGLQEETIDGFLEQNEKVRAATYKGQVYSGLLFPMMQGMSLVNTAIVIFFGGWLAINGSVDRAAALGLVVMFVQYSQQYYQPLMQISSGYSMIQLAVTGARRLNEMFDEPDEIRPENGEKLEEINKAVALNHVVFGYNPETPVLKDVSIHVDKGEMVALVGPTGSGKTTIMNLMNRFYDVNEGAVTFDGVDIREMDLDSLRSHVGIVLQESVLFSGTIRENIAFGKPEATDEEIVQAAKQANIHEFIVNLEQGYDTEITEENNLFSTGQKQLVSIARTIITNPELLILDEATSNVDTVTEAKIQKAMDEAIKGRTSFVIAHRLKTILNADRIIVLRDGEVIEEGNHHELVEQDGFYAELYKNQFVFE

Structure (SMILES): CCOc1ccc(-c2nc3ccc(-c4nc5ccc(N6CCN(C)CC6)cc5[nH]4)cc3[nH]2)cc1 [Hoechst 33342]
- maximal ATPase stimulation (basal = 100%) [1]: 130%
- maximal ATPase stimulation (basal = 100%) [2]: 165%

Structure (SMILES): CC[n+]1c(-c2ccccc2)c2cc(N)ccc2c2ccc(N)cc21 [ethidium]
- drug-modulated ATPase activity [3]: For ethidium, a bell-shaped curve with a large magnitude was observed for EfrEF

Structure (SMILES): COc1cccc2c1C(=O)c1c(O)c3c(c(O)c1C2=O)C[C@@](O)(C(C)=O)C[C@@H]3O[C@H]1C[C@H](N)[C@H](O)[C@H](C)O1 [daunorubicin]
- drug-modulated ATPase activity [4]: a strong response in the form of a bell-shaped curve was seen for EfrCD
